Data: patent publication US20190231751A1, “TREATMENT OF FIBROTIC DISORDERS WITH JUN N-TERMINAL KINASE INHIBITORS” (Imago Pharmaceuticals, Inc., priority 2016, published 2019)

Key:
JNK1 = JNK1 (Homo sapiens, UniProt P45983); experiment: In vitro JNK1 inhibition (Table 1); type: biochemical
Protocol: (§1) In vitro assays for the determination of JNK activities are known in the art and exemplary assay formats are described herein.
(§2) IC50 values in Table 1 were determined using the procedures as described in U.S. Pat. No. 8,450,353.

JNK3 = JNK3 (Homo sapiens, UniProt P53779); experiment: In vitro JNK3 inhibition (Table 1); type: biochemical
Protocol: as §1, §2

Chain of JNK1 (P45983 whole entry, species assumed): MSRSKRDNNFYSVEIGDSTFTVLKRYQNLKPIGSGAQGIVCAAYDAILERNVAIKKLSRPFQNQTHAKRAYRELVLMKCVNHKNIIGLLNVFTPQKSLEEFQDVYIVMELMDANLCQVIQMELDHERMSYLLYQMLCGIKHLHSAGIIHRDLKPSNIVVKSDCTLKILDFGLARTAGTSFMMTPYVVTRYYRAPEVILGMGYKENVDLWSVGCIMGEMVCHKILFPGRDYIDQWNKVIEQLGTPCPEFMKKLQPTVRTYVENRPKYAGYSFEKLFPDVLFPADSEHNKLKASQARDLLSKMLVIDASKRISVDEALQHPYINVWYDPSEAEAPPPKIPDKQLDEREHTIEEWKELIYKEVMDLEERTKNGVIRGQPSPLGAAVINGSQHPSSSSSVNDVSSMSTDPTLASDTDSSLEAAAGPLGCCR
Chain of JNK3 (P53779 whole entry, species assumed): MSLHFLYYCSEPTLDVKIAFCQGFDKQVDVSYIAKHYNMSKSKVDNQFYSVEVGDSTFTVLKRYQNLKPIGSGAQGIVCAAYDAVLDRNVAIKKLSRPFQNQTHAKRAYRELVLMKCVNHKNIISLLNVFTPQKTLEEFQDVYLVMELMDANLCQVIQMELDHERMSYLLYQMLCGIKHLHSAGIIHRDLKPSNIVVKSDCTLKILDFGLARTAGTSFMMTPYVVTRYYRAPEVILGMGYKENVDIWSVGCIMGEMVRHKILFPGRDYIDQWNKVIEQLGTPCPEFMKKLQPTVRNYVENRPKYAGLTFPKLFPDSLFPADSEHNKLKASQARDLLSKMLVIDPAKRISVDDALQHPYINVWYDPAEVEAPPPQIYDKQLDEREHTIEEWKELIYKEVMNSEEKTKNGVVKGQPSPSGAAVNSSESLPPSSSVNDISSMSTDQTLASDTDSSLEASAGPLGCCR

Row | SMILES | IC50 (JNK1) [nM] | IC50 (JNK3) [nM]
1 | O=C(Cn1c(=O)ccc2cnccc21)Nc1ccsc1-c1cscn1 [2-(2-oxo-1,6-naphthyridin-1(2H)-yl)-N-(2-(thiazol-4-yl)thiophen-3-yl)acetamide] | < 100 | 
2 | O=C(Cn1c(=O)ccc2cc(C(F)(F)F)ccc21)Nc1ccsc1-c1cscn1 [2-(2-oxo-6-(trifluoromethyl)quinolin-1(2H)-yl)-N-(2-(thiazol-4-yl)thiophen-3-yl)acetamide] | < 100 | < 100
3 | COc1ccc(CC(=O)Nc2ccsc2-c2c[nH]c(C)n2)cc1 [2-(4-methoxyphenyl)-N-(2-(2-methyl-1H-imidazol-4-yl)thiophen-3-yl)acetamide] | > 10000 | > 10000
4 | COc1ccc(CC(=O)Nc2ccsc2N2CCOC2=O)cc1 [2-(4-methoxyphenyl)-N-(2-(2-oxooxazolidin-3-yl)thiophen-3-yl)acetamide] |  | > 10000
5 | COc1ccc(CC(=O)Nc2ccsc2-c2nc(-c3ccncc3)n[nH]2)cc1 [2-(4-methoxyphenyl)-N-(2-(3-(pyridin-4-yl)-1H-1,2,4-triazol-5-yl)thiophen-3-yl)acetamide] |  | > 10000
6 | O=C(Cc1cccc2ncsc12)Nc1scc(Br)c1-c1ncn[nH]1 [2-(benzo[d]thiazol-7-yl)-N-(4-bromo-3-(1H-1,2,4-triazol-5-yl)thiophen-2-yl)acetamide] | < 100 | < 100
7 | Cc1nc(-c2sccc2NC(=O)Cc2cccc3ccccc23)n(C)n1 [N-(2-(1,3-dimethyl-1H-1,2,4-triazol-5-yl)thiophen-3-yl)-2-(naphthalen-1-yl)acetamide] | > 10000 | > 10000
8 | Cn1ccnc1-c1sccc1NC(=O)Cc1cccc2ccccc12 [N-(2-(1-methyl-1H-imidazol-2-yl)thiophen-3-yl)-2-(naphthalen-1-yl)acetamide] | > 10000 | > 10000
9 | Cn1ccc(-c2sccc2NC(=O)Cc2cccc3ccccc23)n1 [N-(2-(1-methyl-1H-pyrazol-3-yl)thiophen-3-yl)-2-(naphthalen-1-yl)acetamide] | > 10000 | > 10000
10 | COc1ccc(CC(=O)Nc2ccsc2-n2cncn2)cc1 [N-(2-(1H-1,2,4-triazol-1-yl)thiophen-3-yl)-2-(4-methoxyphenyl)acetamide] | > 10000 | > 10000
11 | O=C(Cc1cccc2ccccc12)Nc1ccsc1-n1ccnc1 [N-(2-(1H-imidazol-1-yl)thiophen-3-yl)-2-(naphthalen-1-yl)acetamide] |  | 100 to 10000
12 | COc1ccc(CC(=O)Nc2ccsc2-c2c[nH]cn2)cc1 [N-(2-(1H-imidazol-4-yl)thiophen-3-yl)-2-(4-methoxyphenyl)-acetamide] | > 10000 | > 10000
13 | COc1ccc(CC(=O)Nc2ccsc2-n2cccn2)cc1 [N-(2-(1H-pyrazol-1-yl)thiophen-3-yl)-2-(4-methoxyphenyl)-acetamide] | > 10000 | > 10000
14 | Cc1nc(-c2sccc2NC(=O)CN2C(=O)CCc3ccccc32)c[nH]1 [N-(2-(2-methyl-1H-imidazol-4-yl)thiophen-3-yl)-2-(2-oxo-3,4-dihydroquinolin-1(2H)-yl)acetamide] | > 10000 | > 10000
15 | COc1ccc(CC(=O)Nc2ccsc2-n2nccn2)cc1 [N-(2-(2H-1,2,3-triazol-2-yl)thiophen-3-yl)-2-(4-methoxyphenyl)acetamide] | 100 to 10000 | 100 to 10000
16 | COc1ccc(CC(=O)Nc2ccsc2-c2nnc(C(C)C)o2)cc1 [N-(2-(5-isopropyl-1,3,4-oxadiazol-2-yl)thiophen-3-yl)-2-(4-methoxyphenyl)acetamide] | > 10000 | > 10000

Row | SMILES | IC50 (JNK1) [nM] | IC50 (JNK3) [nM]
17 | O=C(Cn1c(=O)ccc2cc(F)c(F)cc21)Nc1sccc1-c1ncon1 [N-(3-(1,2,4-oxadiazol-3-yl)thiophen-2-yl)-2-(6,7-difluoro-2-oxoquinolin-1(2H)-yl)acetamide] | < 100 | 
18 | COCn1nnnc1-c1ccsc1NC(=O)Cc1ccc(OC)cc1 [N-(3-(1-(methoxymethyl)-1H-tetrazol-5-yl)thiophen-2-yl)-2-(4-methoxyphenyl)acetamide] | 100 to 10000 | 100 to 10000
19 | O=C(CN1C(=O)CCc2ccccc21)Nc1sccc1-c1ncn[nH]1 [N-(3-(1H-1,2,4-triazol-5-yl)thiophen-2-yl)-2-(2-oxo-3,4-dihydroquinolin-1(2H)-yl)acetamide] | < 100 | 
20 | O=C(Cc1cccc2cnccc12)Nc1scnc1-c1cscn1 [N-(4,4′-bithiazol-5-yl)-2-(isoquinolin-5-yl)acetamide] | < 100 | < 100
21 | O=C(Cc1cccc2ncc(C(F)(F)F)cc12)Nc1scc(Br)c1-c1nc[nH]n1 [N-(4-bromo-3-(1H-1,2,4-triazol-3-yl)thiophen-2-yl)-2-(3-(trifluoromethyl)quinolin-5-yl)acetamide] | < 100 | < 100
22 | O=C(Cc1cccc2cc(F)cnc12)Nc1scc(Br)c1-c1nc[nH]n1 [N-(4-bromo-3-(1H-1,2,4-triazol-3-yl)thiophen-2-yl)-2-(3-fluoroquinolin-8-yl)acetamide] | < 100 | 
23 | O=C(Cn1c(=O)ccc2c(C(F)(F)F)cccc21)Nc1scc(Br)c1-c1ncn[nH]1 [N-(4-bromo-3-(1H-1,2,4-triazol-5-yl)thiophen-2-yl)-2-(2-oxo-5-(trifluoromethyl)quinolin-1(2H)-yl)acetamide] | < 100 | < 100
24 | O=C(Cc1cc2ncccc2cc1F)Nc1scc(Br)c1-c1ncn[nH]1 [N-(4-bromo-3-(1H-1,2,4-triazol-5-yl)thiophen-2-yl)-2-(6-fluoroquinolin-7-yl)acetamide] | < 100 | 
25 | Cc1cn2c(CC(=O)Nc3scc(Br)c3-c3ncn[nH]3)csc2n1 [N-(4-bromo-3-(1H-1,2,4-triazol-5-yl)thiophen-2-yl)-2-(6-methylimidazo[2,1-b]thiazol-3-yl)acetamide] | < 100 | 
26 | O=C(Cc1cc(F)cc2ncccc12)Nc1scc(Br)c1-c1ncn[nH]1 [N-(4-bromo-3-(1H-1,2,4-triazol-5-yl)thiophen-2-yl)-2-(7-fluoroquinolin-5-yl)acetamide] | < 100 | < 100
27 | O=C(Cc1cccc2nccn12)Nc1scc(Br)c1-c1ncn[nH]1 [N-(4-bromo-3-(1H-1,2,4-triazol-5-yl)thiophen-2-yl)-2-(imidazo[1,2-a]pyridin-5-yl)acetamide] | < 100 | 
28 | O=C(CN1C(=O)C(F)(F)c2ccccc21)Nc1scc(Br)c1-c1nnc[nH]1 [N-(4-bromo-3-(4H-1,2,4-triazol-3-yl)thiophen-2-yl)-2-(3,3-difluoro-2-oxoindolin-1-yl)acetamide] | < 100 | 
29 | O=C(Cc1ccc(C(F)(F)F)c2ncccc12)Nc1scc(Cl)c1-c1ncn[nH]1 [N-(4-chloro-3-(1H-1,2,4-triazol-5-yl)thiophen-2-yl)-2-(8-(trifluoromethyl)quinolin-5-yl)acetamide] | < 100 | 
30 | CC(C)c1n[nH]c(-c2c(Cl)csc2NC(=O)CN2C(=O)CCc3ncccc32)n1 [N-(4-chloro-3-(3-isopropyl-1H-1,2,4-triazol-5-yl)thiophen-2-yl)-2-(2-oxo-3,4-dihydro-1,5-naphthyridin-1(2H)-yl)acetamide] | < 100 | 
31 | Cc1nnc(-c2c(C)csc2NC(=O)Cc2ccc(-c3ccncc3)cc2)[nH]1 [N-(4-methyl-3-(5-methyl-4H-1,2,4-triazol-3-yl)thiophen-2-yl)-2-(4-(pyridin-4-yl)phenyl)acetamide] |  | 100 to 10000
